Experimental data from ChEMBL document CHEMBL3885861, “Open TG-GATES”.

Species on record: Rattus norvegicus
Test: Open TG-GATES - Regimen: Single
Assay type: toxicity, organism-based, Sprague-Dawley
Set-up: regimen Single, gender Male, age 6 weeks
Conditions: in vivo, po, 3 mg/kg, route gavage, dose level Low; for APTT / Bas / Eos / Fbg / Hb / Ht / Lym / MCH / MCHC / MCV / Mono / Neu / PT / Plat / RBC / Ret / WBC: tissue Blood; for KIDNEY_L / KIDNEY_R / KIDNEY_TOTAL: tissue Kidney; for LIVER: tissue Liver; for A/G / ALP / ALT / AST / BUN / CRE / Ca / Cl / DBIL / GLC / IP / K / LDH / Na / PL / RALB / TBIL / TC / TG / TP / gamma-GTP: tissue Plasma

For `Cn1cnc([N+](=O)[O-])c1Sc1ncnc2nc[nH]c12` [AZATHIOPRINE], the TERMINAL_BW (3 h) was 191 g, the APTT (3 h) was 23.4 s and the Bas (3 h) was 0%. The Eos (3 h) was 1%, the Fbg (3 h) was 295.8 mg/dL and the Hb (3 h) was 13.4 g/dL. For the same molecule, the Ht (3 h) was 40.1%, the Lym (3 h) was 77.8% and the MCH (3 h) was 21.6 pg. The MCHC (3 h) was 33.4%, the MCV (3 h) was 64.6 fL and the Mono (3 h) was 1.8%. The Neu (3 h) was 18.2%, the PT (3 h) was 15.8 s and the Plat (3 h) was 115.7 x10_4/uL. For the same molecule, the RBC (3 h) was 621.4 x10_4/ul, the Ret (3 h) was 9.1% and the WBC (3 h) was 67.9 x10_2/uL. For the same molecule, the KIDNEY_L (3 h) was 0.8 g, the KIDNEY_R (3 h) was 0.9 g and the KIDNEY_TOTAL (3 h) was 1.7 g. The LIVER (3 h) was 8.6 g, the A/G (3 h) was 1.2 and the ALP (3 h) was 1535.2 IU/L. It also gave an ALT (3 h) of 41.6 IU/L, an AST (3 h) of 73.4 IU/L and a BUN (3 h) of 13.2 mg/dL. It also gave a CRE (3 h) of 0.1 mg/dL, a Ca (3 h) of 10.6 mg/dL and a Cl (3 h) of 106.8 meq/L. It also gave a DBIL (3 h) of 0.002 mg/dL, a GLC (3 h) of 190.2 mg/dL and an IP (3 h) of 8.1 mg/dL. The K (3 h) was 4.2 meq/L, the LDH (3 h) was 273.6 IU/L and the Na (3 h) was 142.8 meq/L. The PL (3 h) was 139.2 mg/dL, the RALB (3 h) was 3 g/dL and the TBIL (3 h) was 0.004 mg/dL. It also gave a TC (3 h) of 75.4 mg/dL, a TG (3 h) of 68 mg/dL and a TP (3 h) of 5.5 g/dL. For the same molecule, the gamma-GTP (3 h) was 1 IU/L, the TERMINAL_BW (6 h) was 185.7 g and the APTT (6 h) was 21.8 s. The Bas (6 h) was 0%, the Eos (6 h) was 0.8% and the Fbg (6 h) was 324.4 mg/dL. For the same molecule, the Hb (6 h) was 13.1 g/dL, the Ht (6 h) was 39% and the Lym (6 h) was 69.2%. The MCH (6 h) was 22.3 pg, the MCHC (6 h) was 33.6% and the MCV (6 h) was 66.3 fL. For the same molecule, the Mono (6 h) was 2.2%, the Neu (6 h) was 26.2% and the PT (6 h) was 15.7 s. The Plat (6 h) was 130.1 x10_4/uL, the RBC (6 h) was 589.2 x10_4/ul and the Ret (6 h) was 9.5%. It also gave a WBC (6 h) of 95.2 x10_2/uL, a KIDNEY_L (6 h) of 0.8 g and a KIDNEY_R (6 h) of 0.8 g. For the same molecule, the KIDNEY_TOTAL (6 h) was 1.7 g, the LIVER (6 h) was 8.1 g and the A/G (6 h) was 1.2. For the same molecule, the ALP (6 h) was 1674.4 IU/L, the ALT (6 h) was 43.2 IU/L and the AST (6 h) was 75 IU/L. For the same molecule, the BUN (6 h) was 9.4 mg/dL, the CRE (6 h) was 0.1 mg/dL and the Ca (6 h) was 10.5 mg/dL. The Cl (6 h) was 106.8 meq/L, the DBIL (6 h) was 0.002 mg/dL and the GLC (6 h) was 182.4 mg/dL. It also gave an IP (6 h) of 8.8 mg/dL, a K (6 h) of 4.2 meq/L and an LDH (6 h) of 288.6 IU/L. For the same molecule, the Na (6 h) was 142.2 meq/L, the PL (6 h) was 135.8 mg/dL and the RALB (6 h) was 3 g/dL. The TBIL (6 h) was 0.008 mg/dL, the TC (6 h) was 78.8 mg/dL and the TG (6 h) was 48.4 mg/dL. It also gave a TP (6 h) of 5.5 g/dL, a gamma-GTP (6 h) of 1 IU/L and a TERMINAL_BW (9 h) of 186.8 g. For the same molecule, the APTT (9 h) was 22.5 s, the Bas (9 h) was 0% and the Eos (9 h) was 1%. For the same molecule, the Fbg (9 h) was 311.8 mg/dL, the Hb (9 h) was 13 g/dL and the Ht (9 h) was 38.7%. It also gave a Lym (9 h) of 74%, an MCH (9 h) of 21.2 pg and an MCHC (9 h) of 33.5%. The MCV (9 h) was 63.4 fL, the Mono (9 h) was 2.4% and the Neu (9 h) was 20.6%. It also gave a PT (9 h) of 15.3 s, a Plat (9 h) of 125.3 x10_4/uL and an RBC (9 h) of 611 x10_4/ul. The Ret (9 h) was 9.3%, the WBC (9 h) was 83.5 x10_2/uL and the KIDNEY_L (9 h) was 0.9 g. For the same molecule, the KIDNEY_R (9 h) was 0.9 g, the KIDNEY_TOTAL (9 h) was 1.7 g and the LIVER (9 h) was 7.5 g. For the same molecule, the A/G (9 h) was 1.2, the ALP (9 h) was 1456.2 IU/L and the ALT (9 h) was 38.4 IU/L. For the same molecule, the AST (9 h) was 70.4 IU/L, the BUN (9 h) was 10.6 mg/dL and the CRE (9 h) was 0.1 mg/dL. The Ca (9 h) was 10.5 mg/dL, the Cl (9 h) was 107 meq/L and the DBIL (9 h) was 0 mg/dL. For the same molecule, the GLC (9 h) was 183.4 mg/dL, the IP (9 h) was 9.3 mg/dL and the K (9 h) was 4.2 meq/L. The LDH (9 h) was 234.2 IU/L, the Na (9 h) was 141.6 meq/L and the PL (9 h) was 140.8 mg/dL. The RALB (9 h) was 2.9 g/dL, the TBIL (9 h) was 0.016 mg/dL and the TC (9 h) was 83.4 mg/dL. It also gave a TG (9 h) of 51.8 mg/dL, a TP (9 h) of 5.4 g/dL and a gamma-GTP (9 h) of 1 IU/L. For the same molecule, the TERMINAL_BW (24 h) was 202.9 g, the APTT (24 h) was 21.3 s and the Bas (24 h) was 0%. The Eos (24 h) was 1%, the Fbg (24 h) was 322.4 mg/dL and the Hb (24 h) was 13.5 g/dL. For the same molecule, the Ht (24 h) was 39.2%, the Lym (24 h) was 77.8% and the MCH (24 h) was 21.9 pg. It also gave an MCHC (24 h) of 34.5%, an MCV (24 h) of 63.4 fL and a Mono (24 h) of 2.2%. For the same molecule, the Neu (24 h) was 18.4%, the PT (24 h) was 16 s and the Plat (24 h) was 135.6 x10_4/uL. It also gave an RBC (24 h) of 618.4 x10_4/ul, a Ret (24 h) of 8.2% and a WBC (24 h) of 63.3 x10_2/uL. The KIDNEY_L (24 h) was 0.9 g, the KIDNEY_R (24 h) was 0.9 g and the KIDNEY_TOTAL (24 h) was 1.8 g. The LIVER (24 h) was 9.7 g, the A/G (24 h) was 1.3 and the ALP (24 h) was 1726.6 IU/L. The ALT (24 h) was 48.8 IU/L, the AST (24 h) was 75.4 IU/L and the BUN (24 h) was 14.6 mg/dL. The CRE (24 h) was 0.1 mg/dL, the Ca (24 h) was 11.1 mg/dL and the Cl (24 h) was 106.8 meq/L. It also gave a DBIL (24 h) of 0 mg/dL, a GLC (24 h) of 189 mg/dL and an IP (24 h) of 7.2 mg/dL. It also gave a K (24 h) of 4.1 meq/L, an LDH (24 h) of 318.6 IU/L and a Na (24 h) of 143.4 meq/L. For the same molecule, the PL (24 h) was 148.2 mg/dL, the RALB (24 h) was 3.2 g/dL and the TBIL (24 h) was 0.004 mg/dL. The TC (24 h) was 76.4 mg/dL, the TG (24 h) was 120 mg/dL and the TP (24 h) was 5.7 g/dL. For the same molecule, the gamma-GTP (24 h) was 1.2 IU/L.
